Broadly, the melting point is the temperature, or range, at which the solid turns liquid. As for `CCOCc1nc2c(N)nc3ccccc3c2n1CCCCS(=O)(=O)Nc1ccccn1`, the melting point fell in the range of 197 to 200 °C.

In turn, `CCOC(=O)Cn1cc(C(=O)Nc2ccc(OCC(C)(C)C)c(C#N)c2)c(C)n1` showed a melting point of 240 °C.

Compound `Cc1c(C)c2c(c(C)c1O)C(=O)CC(C)(COc1ccc([N+](=O)[O-])cc1)O2` (centres undefined) yielded a melting point of 199 to 204 °C.

`COc1ccc2c(c1)sc1ncc(C(O)CCc3ccccc3)n12` (centres undefined) displayed a melting point of 166 to 167 °C.

`CCn1ncnc1COc1nn2c(-c3ccc(F)cc3)nncc2c1-c1ccccc1F` showed a melting point of 179 °C.

Regarding `O=S1CCC(c2ccccc2)(c2ccccc2)CC1`, the melting point turned out to be 122 °C.

For `CCCn1c(=O)c2[nH]c(/C=C/c3cc(OC)c(OC)c(OC)c3)nc2n(CCC)c1=O`, the melting point lay in the range of 162 to 163 °C.

In turn, `CCOC(=O)C1N=c2ccsc2=CN1N` (centres undefined) showed a melting point of 139 to 141 °C.

The compound `O=C(Nc1ccccn1)c1cc2ccnc(Cl)c2[nH]1` returned a melting point of 94 to 102 °C.

As to `CCN(CC)CC1=Cc2ccc(Cl)cc2S1(=O)=O`, the melting point is 58 to 59 °C.

The compound `COC(=O)CCCCCNC(=O)C(CO)NS(=O)(=O)c1ccc(Cl)cc1` (racemic) showed a melting point of 83 to 86 °C.

`Cc1[nH]c(Cc2ccccc2)nc1C=O` returned a melting point of 171 to 173 °C.

In turn, `CC1OC(c2cc(-n3c(=O)cc(C(F)(F)F)n(C)c3=O)ccc2Cl)OC1C` (centres undefined) yielded a melting point of 149 to 151 °C.

`COC(=O)c1cccc(-c2nc(COc3ccc(CCl)cc3OC)c(C)o2)c1` had a melting point of 125 to 126 °C.

In the case of `COC(=O)c1nnc2n1-c1ccc(Cl)cc1C(c1ccccc1)=NC2`, the melting point lay within 216 to 217 °C.

With `C=C1OC(=NN)C(c2ccccc2)C(=O)N1C(C)(C)C(=O)Nc1cc(Cl)cc(Cl)c1` (centres undefined), the melting point lay within 146 to 149 °C.

`O=[N+]([O-])c1cccnc1Nc1ccncc1` gave a melting point of 165 to 167 °C.

The compound `Cc1ccc(-n2c3ccc(C=O)cc3c3cc(C=O)ccc32)cc1` gave a melting point of 229 to 230 °C.

`CN(C)S(=O)(=O)c1ccc(C(F)(F)F)cc1[N+](=O)[O-]` had a melting point of 102 to 104 °C.

For `COc1cccc(-c2ncc3n2C=CN(C)C3)c1`, the melting point was in the range of 211 to 214 °C.

`CC1CC=C(c2ccc(C(C)C(=O)O)cc2)CC1` (centres undefined) displayed a melting point of 100 to 104 °C.

The compound `Brc1ccc(N=NSc2ccccc2)c2ccccc12` yielded a melting point of 57 to 58 °C.

`COc1cccc(CNc2ccc(C(C)=O)cc2)c1OCCCC(=O)O` had a melting point of 85 to 95 °C.

In turn, `C=CCCOc1ccc(C[C@H](NC(=O)OC(C)(C)C)C(=O)N[C@@H](CC(C)C)C(=O)O)cc1` had a melting point of 68 to 70 °C.

The compound `O=C(Nc1ccc2nc(CN3CCCCC3)ccc2c1)c1ccc(-c2ccc(Cl)cc2)cc1` returned a melting point of 211 to 213 °C.

As to `COc1cccc(C(=O)N2CCc3cc(O)c(OC)cc3C2=O)c1`, the melting point lay in the range of 198 to 199 °C.

Compound `COc1cccc(-n2c(CCl)nc3ccccc3c2=O)c1` displayed a melting point of 180 to 182 °C.

Consider `C=CCNc1cc(C)nc2c(C)n[nH]c12`, for which the melting point fell in the range of 196 to 198 °C.

The compound `COc1ccc(C(=O)N2CCc3cc(O)c(OC)cc3C2)cc1` registered a melting point of 173 to 174 °C.

On to `COCC1CN(c2ccc3cc(OCCS(C)=O)ccc3c2)C(=O)O1` (centres undefined), for which the melting point was in the range of 133 to 141 °C.

In turn, `CCOC(=O)Cn1c(C(=O)OCc2ccccc2)cc2cc(F)ccc21` registered a melting point of 75 to 76 °C.

Turning to `OCCC1(CCO)CCN(Cc2ccccc2)CC1`, the melting point is 75 to 78 °C.

In turn, `COc1ccc(OCCCCCC(=O)O)c(C=O)c1` registered a melting point of 104 to 106 °C.

Regarding `c1ccc(COc2ccc(-c3nnn[nH]3)cc2)cc1`, the melting point is 228 °C.

As to `C=CCOc1ccccc1OCC(O)CNC1CCC(NC(=O)NCC)CC1` (centres undefined), the melting point lay within 159 to 160 °C.

`CC1(C)CS(=O)CC(C)(C)c2[nH]c(-c3ccccc3)nc21` showed a melting point of 273 to 275 °C.

Regarding `CCCNC(=O)NCc1ccc2c(c1)C(=O)N(C1CCC(=O)NC1=O)C2=O` (centres undefined), the melting point was 166 to 168 °C.

`COc1ccccc1N1CCN(CC(O)COc2ccc3cc(C(N)=O)oc3c2)CC1` (centres undefined) yielded a melting point of 152 to 154 °C.

Take `CC(=O)c1cc(C(=O)O)c(O)c([N+](=O)[O-])c1`: the melting point lay in the range of 192 to 193 °C.

The compound `COc1cc(NS(C)(=O)=O)ccc1C1=NC2=CCC(=O)NC2=N1` returned a melting point of over 255 °C.

`CCOC(=O)Cc1cn2cc(Br)nc(NC)c2n1`: the melting point is 104 °C.

In the case of `COc1cc2c(cc1C(=O)O)nnn2C(C)=O`, the melting point fell in the range of 208 to 212 °C.

In turn, `Cc1cccc(C(N)c2ccc3nc(NC4CCN(CCO)CC4)n(Cc4nc(C)ccc4O)c3c2)c1` (centres undefined) returned a melting point of 137 °C.

Compound `CC(C)(C)c1ccc(-c2nnc(N)nc2N)cc1` yielded a melting point of 275 to 276 °C.

Consider `COc1ccc2c(c1)CCC1CCNC(=O)C(CC(C)N(Cc3ccccc3)C(C)C)=C21` (centres undefined), for which the melting point was in the range of 205 to 207 °C.

`COc1ccc2cc3c(c(-c4ccc5c(c4)OCO5)c2c1)CNC3=O` had a melting point of 259 to 262 °C.

Consider `COc1ccc2c(c1)S(=O)c1nccnc1N2` (centres undefined), for which the melting point was in the range of 240 to 241 °C.

Consider `CC#CCOc1ccc(S(=O)[C@@H](C(=O)NO)c2ccc(OC)cc2)cc1` (some centres undefined), for which the melting point is 134 °C.

Consider `CCCSc1ncc(CC(NC(=O)CC(C)C)C(=O)O)n1Cc1ccccc1Cl` (centres undefined), for which the melting point was 151 to 154 °C.

`CN(C)C=C(C#N)C(=O)c1cc(F)c(F)c(F)c1F`: the melting point was in the range of 149 to 151 °C.

The compound `CCOc1ccc(-c2ccc3c(c2)C=C(C(=O)OC)CCN3C=O)cc1` displayed a melting point of 133 to 135 °C.

The compound `O=C(O)c1ccc(CBr)c(C(F)(F)F)c1` had a melting point of 136 to 140 °C.

Consider `CC(=O)OC1CSC(Oc2cncc(-c3ccsc3)c2)C(OC(C)=O)C1OC(C)=O` (centres undefined), for which the melting point turned out to be 175 °C.

Compound `Cc1cc(C)c2c(c1)C(=O)C1(CCNCC1)CC2` registered a melting point of over 260 °C.

`CCN(CC)C(=O)C(C)Cc1nc(-c2ccccc2)cc2ccccc12` (centres undefined) came in with a melting point of 57 °C.

In the case of `N#Cc1cc(NC(=O)c2ccn(-c3ccc(Cl)cc3)c2)ccc1N1CCN(CCO)CC1`, the melting point stood at 196 °C.

In the case of `N#Cc1[nH]c2ccccc2c1-c1ccccc1`, the melting point was in the range of 137 to 142 °C.

Compound `CCOC(=O)C1CCN(C(=O)OCC)c2ccccc2C1O` (centres undefined) registered a melting point of 93 °C.

With `CCN(CC)C(=O)C1CN2CCC1C(NCc1ccccc1OC)C2C(c1ccccc1)c1ccccc1` (centres undefined), the melting point is 121 to 123 °C.

For `COc1ccccc1NC(=O)Nc1ccc(N2CCN(C(=O)Nc3ccc(OCCO)cc3Cl)CC2)cc1`, the melting point was in the range of 134 to 136 °C.

With `COc1cc(NC(=O)N2CCOCN2)c(Cl)cc1Cl`, the melting point is 128 to 130 °C.

In turn, `NC1=CC(=O)CC(c2c(Cl)cccc2Cl)C1` (centres undefined) returned a melting point of 216 to 217 °C.

For `COC(=O)[C@@]12CN(Cc3ccccc3)C[C@@H]1[C@@](O)(c1cccc(OC)c1)CC[C@H]2c1ccccc1` (racemic), the melting point amounted to 118 °C.

`C=C1C[C@@H]2[C@H](CC[C@]3(C)C(=O)CC[C@@H]23)[C@@]2(C)CCC(=O)C(SCC)=C12` registered a melting point of 140 to 145 °C.

`O=c1[nH]c(-c2ccccc2)cn1S(=O)(=O)c1ccc2c(c1)CCN2Cc1cccnc1` showed a melting point of 244 to 245 °C.

`COc1ccccc1OCCN1CCC(Cc2c[nH]c3ccc(F)cc23)CC1` returned a melting point of 91 °C.

Compound `CCOC(=O)c1cnc2n(c1=O)-c1ccccc1N(C=O)C2` had a melting point of 172 to 174 °C.

In the case of `ON=C(c1ccccc1)c1nsc2nc3ccccc3n12`, the melting point is 247 °C.

For the compound `CC(C)(C)C(NC(=O)c1ccc(Cl)cc1)Nc1c(Nc2ccc(Cl)nc2)c(=O)c1=O` (centres undefined), the melting point lay in the range of 258 to 259 °C.

`CCCn1nc2c(N)nc3ccccc3c2c1CCCCN1C(C)=NOC1(C)C` registered a melting point of 144 to 146 °C.

For `CCOC(=O)c1cn(Cc2ccc(Oc3ccccc3)cc2)nc1OCc1ccc(OCc2nc(-c3ccco3)oc2C)c(OC)c1`, the melting point was in the range of 98 to 99 °C.

For `CN(CC(=O)O)C(=O)CC1=C(n2nc(-c3c(-c4ccccc4)nn4ccccc34)ccc2=O)CCCC1`, the melting point is 135 to 138 °C.

`COC(=O)c1nc2nn(-c3ccccc3)c(C)c2c(N)c1C(=O)OC` came in with a melting point of 190 to 191 °C.

With `NCCCC(F)(F)C(F)(F)C(F)(F)C(F)(F)C(F)(F)C(F)(F)C(F)(F)C(F)(F)C(F)(F)C(F)(F)F`, the melting point was 53 to 55 °C.

For the compound `Cc1cc(-n2ccc(=O)[nH]c2=O)cc(Cl)c1S(=O)(=O)c1ccc(Cl)cc1`, the melting point lay within 235 to 242 °C.

Take `COc1ccccc1C(=O)c1cccc([N+](=O)[O-])c1`: the melting point amounted to 94 °C.

Regarding `Cc1ccc(C(=O)NN2CCOCC2)c(Nc2ccc3cn[nH]c3c2)n1`, the melting point lay in the range of 265 to 268 °C.

With `CCOC(=O)C1=C(C)N=C(SCc2ccc(OC)cc2)N(C(=O)OC(C)C)C1c1cccc(Cl)c1Cl` (centres undefined), the melting point lay in the range of 97 to 99 °C.

As to `CS(=O)(=O)c1ccc(-c2cnn(CC(F)(F)F)c(=O)c2Sc2nc[nH]n2)cc1`, the melting point lay within 197 to 200 °C.

`C=C(c1ccc(OC)c(N)c1)c1ccc(OC)c(OCC)c1` gave a melting point of 91 to 93 °C.

In turn, `CCN(CC)C(=O)n1ccc(S(=O)(=O)c2ccc(C)c(C)c2)n1` gave a melting point of 85 to 86 °C.

With `NS(=O)(=O)NC(=O)NCCCCC1CCSS1` (centres undefined), the melting point was 123 to 125 °C.

As to `CCC(c1ccc(-c2ccc(Cl)cc2)cc1)N1CCNCC1` (centres undefined), the melting point is 95 to 97 °C.

For the compound `CC(=O)NCCCC(=O)NCCCC(=O)c1ccc(Cl)cc1CCC(=O)O`, the melting point turned out to be 108 °C.

As to `CCCCCCCCCCOc1ccc(C(=O)O)o1`, the melting point lay in the range of 124 to 126 °C.

The compound `Cc1cc(Cl)c(O)cc1N` showed a melting point of 144 °C.

In turn, `O=C(O)c1ccc2c(c1)C(=O)N(c1ccccc1)C2=O` showed a melting point of 257 to 258 °C.

With `CCOc1cc(OCC)c([N+](=O)[O-])c(OCC)c1[N+](=O)[O-]`, the melting point turned out to be 105 °C.

In turn, `N#Cc1cc(N)n(-c2c(Cl)cc(C(F)(F)F)cc2Cl)c1` gave a melting point of 176 °C.
